Laboratory results reported in patent US11141410B2 (MERCK SHARP & DOHME CORP., priority 2015, dated 2021).
Read-outs that look alike come from different tables or passages of the source.

What was measured:
[1] = tested on: MRSA COL (MB5393); experiment: TarO Inhibitor/β-Lactam Synergy Assay (growth, OD600); format: cell-based; settings: Staphylococcus aureus, read-out: MITC95 TarO inhibitor alone, Bacteria: SA_MB5393
[2] = tested on: MRSA COL (MB5393); experiment: as above; format: cell-based, Staphylococcus aureus; settings: for MITC95 TarO inhibitor + 4 μg/mL IPM; Bacteria: SA_MB5393: in combination with 4 μg/mL imipenem (IPM); for MITC95 TarO inhibitor + 8 μg/mL DCX; Bacteria: SA_MB5393: in combination with 8 μg/mL dicloxacillin (DCX)
Procedure: The TarO inhibitor/β-lactam synergy assay was performed to measure the re-sensitization of methicillin-resistant Staphylococci bacteria (MB5393: MRSA COL) to β-lactam antibiotics by TarO inhibitors. MRSA COL is a hospital-acquired penicillinase-negative clinically isolated strain commonly used in Staphylococcus aureus studies and is fully resistant to the antimicrobial bioactivity of β-lactam antibiotics, including but not limited to imipenem and dicloxacillin. […] MRSA COL is fully refractory to β-lactam antibiotic effect at the current clinical breakpoint concentrations and as such MRSA COL is fully viable at these concentrations.
The β-lactam antibiotic concentration was fixed at the clinical breakpoint (imipenem 4 μg/ml or dicloxacillin 8 μg/ml) and the TarO inhibitors were titrated by 2 fold starting from the highest concentration of 200 μM with final DMSO concentration of 2% in the assay. 5×10^5 colony forming unit of MRSA COL in cation-adjusted Mueller Hinton broth (CAMHB) was then mixed and the assay plate was incubated for 20 hours at 37° C. without shaking. After 20 hours, the optical density at 600 nm (OD600) was read for all wells to determine relative growth of MRSA COL.

[3] = TarO inhibitor alone, >200 μM = 95% growth inhibition not achieved, 20 hours at 37° C.

SMILES: O=C(NCc1cncc2cccnc12)N1C(=O)O[C@H](c2cc(C(F)(F)F)cc(C(F)(F)F)c2)[C@@H]1CO [Example 53, (4S,5R)-5-[3,5-bis(trifluoromethyl)phenyl]-4-(hydroxymethyl)-N-(1,6-naph-thyridin-8-yl-methyl)-2-oxo-1,3-oxazolidine-3-carboxamide]
- IC95 [1, 3]: > 200 µM
- MITC95 TarO inhibitor + 4 μg/mL IPM; Bacteria: SA_MB5393 [2]: 0.39 µM
- MITC95 TarO inhibitor + 8 μg/mL DCX; Bacteria: SA_MB5393 [2]: 1.37 µM

SMILES: O=C(NCc1cccc2cncnc12)N1C(=O)O[C@H](c2cc(C(F)(F)F)cc(C(F)(F)F)c2)[C@@H]1CO [Example 54, (4S,5R)-5-[3,5-bis(trifluoromethyl)phenyl]-4-(hydroxymethyl)-2-oxo-N-(quinazolin-8-yl-methyl)-1,3-oxazolidine-3-carboxamide]
- IC95 [1, 3]: > 200 µM
- MITC95 TarO inhibitor + 4 μg/mL IPM; Bacteria: SA_MB5393 [2]: 0.20 µM
- MITC95 TarO inhibitor + 8 μg/mL DCX; Bacteria: SA_MB5393 [2]: 0.65 µM

SMILES: COc1cc([C@H]2OC(=O)N(C(=O)NCc3cncc4ccccc34)[C@H]2CO)cc(C(F)(F)F)c1 [Example 55, (4S,5R)-4-(hydroxymethyl)-N-(isoquinolin-4-ylmethyl)-5-[3-methoxy-5-(trifluoromethyl)phenyl]-2-oxo-1,3-oxazolidine-3-carboxamide]
- IC95 [1, 3]: > 200 µM
- MITC95 TarO inhibitor + 4 μg/mL IPM; Bacteria: SA_MB5393 [2]: 0.30 µM
- MITC95 TarO inhibitor + 8 μg/mL DCX; Bacteria: SA_MB5393 [2]: 1.18 µM

SMILES: O=C(NCc1cncc2ccccc12)N1C(=O)O[C@H](c2cc(F)cc(C(F)(F)F)c2)[C@@H]1CO [Example 57, (4S,5R)-5-[3-fluoro-5-(trifluoromethyl)phenyl]-4-(hydroxymethyl)-N-(isoquinolin-4-ylmethyl)-2-oxo-1,3-oxazolidine-3-carboxamide]
- IC95 [1, 3]: > 200 µM
- MITC95 TarO inhibitor + 4 μg/mL IPM; Bacteria: SA_MB5393 [2]: 0.33 µM
- MITC95 TarO inhibitor + 8 μg/mL DCX; Bacteria: SA_MB5393 [2]: 1.56 µM

SMILES: COc1cc([C@H]2OC(=O)N(C(=O)NCc3cccc4nccnc34)[C@H]2CO)cc(C(F)(F)F)c1 [Example 58, (4S,5R)-4-(hydroxymethyl)-5-[3-methoxy-5-(trifluoromethyl)phenyl]-2-oxo-N-(quinoxalin-5-ylmethyl)-1,3-oxazolidine-3-carboxamide]
- IC95 [1, 3]: > 200 µM
- MITC95 TarO inhibitor + 4 μg/mL IPM; Bacteria: SA_MB5393 [2]: 1.56 µM
- MITC95 TarO inhibitor + 8 μg/mL DCX; Bacteria: SA_MB5393 [2]: 6.25 µM

SMILES: COc1cc([C@H]2OC(=O)N(C(=O)NCc3cccc4cncnc34)[C@H]2CO)cc(C(F)(F)F)c1 [Example 59, (4S,5R)-4-(hydroxymethyl)-5-[3-methoxy-5-(trifluoromethyl)phenyl]-2-oxo-N-(quinazolin-8-ylmethyl)-1,3-oxazolidine-3-carboxamide]
- IC95 [1, 3]: > 200 µM
- MITC95 TarO inhibitor + 4 μg/mL IPM; Bacteria: SA_MB5393 [2]: 1.95 µM
- MITC95 TarO inhibitor + 8 μg/mL DCX; Bacteria: SA_MB5393 [2]: 10.42 µM

SMILES: COc1cc(C(F)(F)F)cc([C@H]2OC(=O)N(C(=O)NCc3cncc4cccnc34)[C@H]2C)n1 [Example 60, (4S,5S)—N-((1,6-naphthyridin-8-yl)methyl)-5-(6-methoxy-4-(trifluoromethyl)pyridin-2-yl)-4-methyl-2-oxooxazolidine-3-carboxamide]
- IC95 [1, 3]: > 200 µM
- MITC95 TarO inhibitor + 4 μg/mL IPM; Bacteria: SA_MB5393 [2]: 0.33 µM
- MITC95 TarO inhibitor + 8 μg/mL DCX; Bacteria: SA_MB5393 [2]: 1.45 µM

SMILES: COc1cc(C(F)(F)F)cc([C@H]2OC(=O)N(C(=O)NCc3cncc4ccccc34)[C@H]2CO)n1 [Example 63, (4S,5S)-4-(hydroxymethyl)-N-(isoquinolin-4-ylmethyl)-5-(6-methoxy-4-(trifluoromethyl)-pyridin-2-yl)-2-oxooxazolidine-3-carboxamide]
- IC95 ([1]; 20 h): > 200 µM
- MITC95 TarO inhibitor + 4 μg/mL IPM; Bacteria: SA_MB5393 [2]: 0.37 µM
- MITC95 TarO inhibitor + 8 μg/mL DCX; Bacteria: SA_MB5393 [2]: 1.13 µM

SMILES: COc1cc(C(F)(F)F)cc([C@H]2OC(=O)N(C(=O)NCc3cncc4cccnc34)[C@H]2CO)n1 [Example 64, (4S,5S)-4-(hydroxymethyl)-5-[6-methoxy-4-(trifluoromethyl)pyridin-2-yl]-N-(1,6-naphthyridin-8-ylmethyl)-2-oxo-1,3-oxazolidine-3-carboxamide]
- IC95 [1, 3]: > 200 µM
- MITC95 TarO inhibitor + 4 μg/mL IPM; Bacteria: SA_MB5393 [2]: 0.94 µM
- MITC95 TarO inhibitor + 8 μg/mL DCX; Bacteria: SA_MB5393 [2]: 4.38 µM

SMILES: C[C@H]1[C@@H](c2cc(C(F)(F)F)cc(C(F)(F)F)c2)OC(=O)N1C(=O)CCc1cncc2ccccc12 [Example 65, (4S,5R)-5-(3,5-bis(trifluoromethyl)phenyl)-3-(3-(isoquinolin-4-yl)propanoyl)-4-methyloxazolidin-2-one]
- IC95 [1, 3]: > 200 µM
- MITC95 TarO inhibitor + 4 μg/mL IPM; Bacteria: SA_MB5393 [2]: 0.06 µM
- MITC95 TarO inhibitor + 8 μg/mL DCX; Bacteria: SA_MB5393 [2]: 0.20 µM
